Assay results taken from publication PMC9527238, “Glutamate and GABAA receptor crosstalk mediates homeostatic regulation of neuronal excitation in the mammalian brain” (Signal Transduction and Targeted Therapy, 2022).

Tests used:
Assay in all cases: Patch clamp, HEK293, mutant GABAAR
Assay type in all cases: cell-based
[1] = target: T1, α1^S158A β2 γ2 GABAAR (Rattus norvegicus, UniProt P62813+P63138, S185A); details: glutamate 100 μM co-applied with GABA 1 μM; normalized to wild-type α1β2γ2
T1 construct: expressed in transfected cells; host or cells: HEK293
Procedure: (§1) To positively confirm one of these two putative binding sites involved in glutamate binding, we performed a systemic mutational analysis of critical amino acids around these two sites followed by electrophysiological characterizations of their impacts on glutamate potentiation in HEK293 cells expressing wild-type or mutated α1β2γ2 GABAARs (Table 1).
(§2) HEK293 cells were cultured in DMEM (Invitrogen) supplemented with 10% fetal bovine serum. Cells were grown to 40–60% confluence and transiently transfected using Lipofectamine 2000 (Invitrogen) with 1:0.5–1 plasmid/lipid ratio. Cells were transfected with a pBK-CMV expression vector containing a rat recombinant GABAAR α, β or γ subunits. Co-transections were done with a plasmid ratio of 1:1 αβ and 2:2:1 for αβγ subunit combinations, respectively. pcDNA3.1-GFP was also co-transfected along with GABAAR subunits as a transfected marker in order to facilitate the visualization of the transfected cells during electrophysiological experiments. Cells were re-plated on glass coverslips after 15–20 h transfection and were cultured for an additional 15–24 h before whole-cell patch-clamp recordings.
(§3) The site-directed mutagenesis of α, β or γ subunits were performed by using the QuikChange method (Stratagene). […] Wild-type or mutant subunits were transfected in HEK293 cells and subjected to electrophysiology examinations.
(§4) Whole-cell patch-clamp recordings were performed under voltage-clamp mode using an Axopatch 200B or 1D patch-clamp amplifier (Molecular Devices) on HEK293 cells and cultured neurons. Whole-cell currents were recorded at a holding potential of −60 mV, and signals were filtered at 2 kHz, digitized at 10 kHz (Digidata 1322 A). Recording pipettes (3–5 MΩ) were filled with the intracellular solution that contained (mM): CsCl 140, HEPES 10, Mg-ATP 4, QX-314 5, pH 7.20; osmolarity, 290–295 mOsm. BAPTA (10 mM) was added in the intracellular solution. The coverslips were continuously superfused with the extracellular solution containing (mM): NaCl 140, KCl 5.4, HEPES 10, MgCl2 1.0, CaCl2 1.3, glucose 20, pH 7.4; osmolarity, 305–315 mOsm. […] Dose–response curves were created by fitting data to Hill equation: I = Imax/[1 + (EC50/[A])^n], where I is the current, Imax is the maximum current, [A] is a given concentration of agonist, n is the Hill coefficient. […] All experiments were performed at room temperature.

[2] = target: T2, α1^S205A β2 γ2 GABAAR (Rattus norvegicus, UniProt P62813+P63138, S232A); details: glutamate 100 μM co-applied with GABA 1 μM; normalized to wild-type α1β2γ2
T2 construct: expressed in transfected cells; host or cells: HEK293
Procedure: as §1, §2, §3, §4

[3] = target: T3, α1 β2 ^I180A γ2 GABAAR (Rattus norvegicus, UniProt P62813+P63138, I205A); details: glutamate 100 μM co-applied with GABA 1 μM; normalized to wild-type α1β2γ2
T3 construct: expressed in transfected cells; host or cells: HEK293
Procedure: as §1, §2, §3, §4

[4] = target: T4, α1^T206A β2 γ2 GABAAR (Rattus norvegicus, UniProt P62813+P63138, T233A); details: glutamate 100 μM co-applied with GABA 1 μM; normalized to wild-type α1β2γ2
T4 construct: expressed in transfected cells; host or cells: HEK293
Procedure: as §1, §2, §3, §4

[5] = target: T5, α1 β2^V177A γ2 GABAAR (Rattus norvegicus, UniProt P62813+P63138, V202A); details: glutamate 100 μM co-applied with GABA 1 μM; normalized to wild-type α1β2γ2
T5 construct: expressed in transfected cells; host or cells: HEK293
Procedure: as §1, §2, §3, §4

[6] = target: T6, α1^Y159A β2 γ2 GABAAR (Rattus norvegicus, UniProt P62813+P63138, Y186A); details: glutamate 100 μM co-applied with GABA 1 μM; normalized to wild-type α1β2γ2
T6 construct: expressed in transfected cells; host or cells: HEK293
Procedure: as §1, §2, §3, §4

[7] = target: T7, α1^E208A β2 γ2 GABAAR (Rattus norvegicus, UniProt P62813+P63138, E235A); details: glutamate 100 μM co-applied with GABA 1 μM; normalized to wild-type α1β2γ2
T7 construct: expressed in transfected cells; host or cells: HEK293
Procedure: as §1, §2, §3, §4

[8] = target: T8, α1^F99A β2 γ2 GABAAR (Rattus norvegicus, UniProt P62813+P63138, F126A); details: glutamate 100 μM co-applied with GABA 1 μM; normalized to wild-type α1β2γ2
T8 construct: expressed in transfected cells; host or cells: HEK293
Procedure: as §1, §2, §3, §4

[9] = target: T9, αK155Rβγ GABAAR (Rattus norvegicus, UniProt P62813+P63138, K182R); details: HEK293, read-out: Glutamate potentiation of GABA currents, % of control, normalized to wild-type α1β2γ2
T9 construct: expressed in transfected cells; host or cells: HEK293
Source text: (§5) To further determine the relative significance between the electrostatic and the side chain steric arrangements of these critical amino acid residues in their interaction with glutamate, we next studied the effects of substitution of these amino acids with amino acids of various sizes or charges on the glutamate potentiation. We substituted α1K104, α1E137, α1K155, or β2E181 with […], a non-charged amino acid, in order to perturb the electrostatic accessibility of glutamate to the binding pocket.
(§6) Fig. 4 Property characterization of glutamate binding sites in HEK cells expressing wild-type or mutated αβγ GABAARs. a, b The effects of electrostatic charge and/or size of the pocket-forming residues on glutamate-induced functional modulation.
as §2, §3, §4

[10] = target: T10, αE137Wβγ GABAAR (Rattus norvegicus, UniProt P62813+P63138, E164W); details: HEK293, read-out: Glutamate potentiation of GABA currents, % of control, normalized to wild-type α1β2γ2
T10 construct: expressed in transfected cells; host or cells: HEK293
Source text: as §5, §6, §2, §3, §4

[11] = target: T11, αE137Dβγ GABAAR (Rattus norvegicus, UniProt P62813+P63138, E164D); details: HEK293, read-out: Glutamate potentiation of GABA currents, % of control, normalized to wild-type α1β2γ2
T11 construct: expressed in transfected cells; host or cells: HEK293
Source text: as §5, §6, §2, §3, §4

[12] = target: T12, αK155Wβγ GABAAR (Rattus norvegicus, UniProt P62813+P63138, K182W); details: HEK293, read-out: Glutamate potentiation of GABA currents, % of control, normalized to wild-type α1β2γ2
T12 construct: expressed in transfected cells; host or cells: HEK293
Source text: as §5, §6, §2, §3, §4

[13] = target: T13, αβE181Dγ GABAAR (Rattus norvegicus, UniProt P62813+P63138, E206D); details: HEK293, read-out: Glutamate potentiation of GABA currents, % of control, normalized to wild-type α1β2γ2
T13 construct: expressed in transfected cells; host or cells: HEK293
Source text: as §5, §6, §2, §3, §4

[14] = target: T14, αβE181Wγ GABAAR (Rattus norvegicus, UniProt P62813+P63138, E206W); details: HEK293, read-out: Glutamate potentiation of GABA currents, % of control, normalized to wild-type α1β2γ2
T14 construct: expressed in transfected cells; host or cells: HEK293
Source text: as §5, §6, §2, §3, §4

[15] = target: T15, αK104Wβγ GABAAR (Rattus norvegicus, UniProt P62813+P63138, K131W); details: HEK293, read-out: Glutamate potentiation of GABA currents, % of control, normalized to wild-type α1β2γ2
T15 construct: expressed in transfected cells; host or cells: HEK293
Source text: as §5, §6, §2, §3, §4

T9 sequence (P62813 28-455 K182R): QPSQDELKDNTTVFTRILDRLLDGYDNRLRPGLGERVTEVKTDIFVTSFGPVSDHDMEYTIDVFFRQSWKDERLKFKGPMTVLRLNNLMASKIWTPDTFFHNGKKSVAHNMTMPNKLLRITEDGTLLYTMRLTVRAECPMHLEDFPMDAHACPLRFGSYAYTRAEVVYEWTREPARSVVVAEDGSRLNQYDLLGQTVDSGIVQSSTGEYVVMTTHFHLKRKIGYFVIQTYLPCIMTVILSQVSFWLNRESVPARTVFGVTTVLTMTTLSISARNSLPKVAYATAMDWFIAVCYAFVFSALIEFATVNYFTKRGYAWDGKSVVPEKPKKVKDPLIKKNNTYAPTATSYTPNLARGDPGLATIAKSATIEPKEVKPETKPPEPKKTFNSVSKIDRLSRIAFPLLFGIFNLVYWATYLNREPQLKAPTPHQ
T9 sequence (P63138 26-474): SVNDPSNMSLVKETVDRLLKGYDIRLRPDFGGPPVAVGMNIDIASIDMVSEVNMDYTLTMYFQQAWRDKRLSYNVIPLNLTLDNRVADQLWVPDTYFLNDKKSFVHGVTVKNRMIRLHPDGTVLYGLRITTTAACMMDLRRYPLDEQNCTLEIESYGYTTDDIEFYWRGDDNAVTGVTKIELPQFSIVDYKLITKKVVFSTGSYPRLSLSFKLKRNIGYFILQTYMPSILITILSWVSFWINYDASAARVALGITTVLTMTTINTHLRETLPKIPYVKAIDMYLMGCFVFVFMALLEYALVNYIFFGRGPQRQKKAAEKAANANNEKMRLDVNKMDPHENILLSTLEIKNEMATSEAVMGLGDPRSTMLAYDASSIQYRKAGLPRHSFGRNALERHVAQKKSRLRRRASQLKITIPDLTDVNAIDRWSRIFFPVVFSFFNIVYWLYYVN
T9 sequence (P18508 39-466 partner): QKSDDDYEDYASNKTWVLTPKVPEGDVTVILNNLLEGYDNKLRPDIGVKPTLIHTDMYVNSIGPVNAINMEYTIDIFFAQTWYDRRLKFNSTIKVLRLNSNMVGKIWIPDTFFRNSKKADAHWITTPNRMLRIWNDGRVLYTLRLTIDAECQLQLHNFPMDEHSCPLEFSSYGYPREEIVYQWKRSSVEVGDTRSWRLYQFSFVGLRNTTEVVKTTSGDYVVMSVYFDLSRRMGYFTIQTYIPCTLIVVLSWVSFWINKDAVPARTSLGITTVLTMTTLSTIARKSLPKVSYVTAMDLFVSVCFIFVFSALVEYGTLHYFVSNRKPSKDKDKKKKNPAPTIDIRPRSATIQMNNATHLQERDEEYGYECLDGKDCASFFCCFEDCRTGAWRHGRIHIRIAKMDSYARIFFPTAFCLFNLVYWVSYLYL
T11 sequence (P62813 28-455 E164D): as the sequence (P62813 28-455 K182R) above, with E137D, R155K counted along it
T11 sequence (P63138 26-474): as the sequence (P63138 26-474) above
T11 sequence (P18508 39-466 partner): as the sequence (P18508 39-466 partner) above
T12 sequence (P62813 28-455 K182W): as the sequence (P62813 28-455 K182R) above, with R155W counted along it
T12 sequence (P63138 26-474): as the sequence (P63138 26-474) above
T12 sequence (P18508 39-466 partner): as the sequence (P18508 39-466 partner) above
T10 sequence (P62813 28-455 E164W): as the sequence (P62813 28-455 K182R) above, with E137W, R155K counted along it
T10 sequence (P63138 26-474): as the sequence (P63138 26-474) above
T10 sequence (P18508 39-466 partner): as the sequence (P18508 39-466 partner) above
T15 sequence (P62813 28-455 K131W): as the sequence (P62813 28-455 K182R) above, with K104W, R155K counted along it
T15 sequence (P63138 26-474): as the sequence (P63138 26-474) above
T15 sequence (P18508 39-466 partner): as the sequence (P18508 39-466 partner) above
T14 sequence (P62813 28-455): as the sequence (P62813 28-455 K182R) above, with R155K counted along it
T14 sequence (P63138 26-474 E206W): as the sequence (P63138 26-474) above, with E181W counted along it
T14 sequence (P18508 39-466 partner): as the sequence (P18508 39-466 partner) above
T13 sequence (P62813 28-455): as the sequence (P62813 28-455 K182R) above, with R155K counted along it
T13 sequence (P63138 26-474 E206D): as the sequence (P63138 26-474) above, with E181D counted along it
T13 sequence (P18508 39-466 partner): as the sequence (P18508 39-466 partner) above
T1 sequence (P62813 28-455 S185A): as the sequence (P62813 28-455 K182R) above, with R155K, S158A counted along it
T1 sequence (P63138 26-474): as the sequence (P63138 26-474) above
T1 sequence (P18508 39-466 partner): as the sequence (P18508 39-466 partner) above
T6 sequence (P62813 28-455 Y186A): as the sequence (P62813 28-455 K182R) above, with R155K, Y159A counted along it
T6 sequence (P63138 26-474): as the sequence (P63138 26-474) above
T6 sequence (P18508 39-466 partner): as the sequence (P18508 39-466 partner) above
T4 sequence (P62813 28-455 T233A): as the sequence (P62813 28-455 K182R) above, with R155K, T206A counted along it
T4 sequence (P63138 26-474): as the sequence (P63138 26-474) above
T4 sequence (P18508 39-466 partner): as the sequence (P18508 39-466 partner) above
T5 sequence (P62813 28-455): as the sequence (P62813 28-455 K182R) above, with R155K counted along it
T5 sequence (P63138 26-474 V202A): as the sequence (P63138 26-474) above, with V177A counted along it
T5 sequence (P18508 39-466 partner): as the sequence (P18508 39-466 partner) above
T3 sequence (P62813 28-455): as the sequence (P62813 28-455 K182R) above, with R155K counted along it
T3 sequence (P63138 26-474 I205A): as the sequence (P63138 26-474) above, with I180A counted along it
T3 sequence (P18508 39-466 partner): as the sequence (P18508 39-466 partner) above
T2 sequence (P62813 28-455 S232A): as the sequence (P62813 28-455 K182R) above, with R155K, S205A counted along it
T2 sequence (P63138 26-474): as the sequence (P63138 26-474) above
T2 sequence (P18508 39-466 partner): as the sequence (P18508 39-466 partner) above
T7 sequence (P62813 28-455 E235A): as the sequence (P62813 28-455 K182R) above, with R155K, E208A counted along it
T7 sequence (P63138 26-474): as the sequence (P63138 26-474) above
T7 sequence (P18508 39-466 partner): as the sequence (P18508 39-466 partner) above
T8 sequence (P62813 28-455 F126A): as the sequence (P62813 28-455 K182R) above, with F99A, R155K counted along it
T8 sequence (P63138 26-474): as the sequence (P63138 26-474) above
T8 sequence (P18508 39-466 partner): as the sequence (P18508 39-466 partner) above

SMILES: N[C@@H](CCC(=O)O)C(=O)O [glutamate, Glutamate]
- Relative potentiation [1]: 106.9 ± 39.8%
- Relative potentiation [2]: 113.1 ± 33.0%
- Relative potentiation [3]: 18.8 ± 12.9%
- Relative potentiation [4]: 129.3 ± 61.7%
- Relative potentiation [5]: 89.5 ± 28.3%
- Relative potentiation [6]: 90.8 ± 26.7%
- Relative potentiation [7]: 90.9 ± 28.7%
- Relative potentiation [8]: 96.4 ± 23.0%
- activity at 100 µM ([9]; Glu 100 μM): 88.4 ± 22.5%
- activity at 1000 µM ([9]; Glu 1 mM): 106 ± 20.4%
- activity at 100 µM ([10]; Glu 100 μM): 14.7 ± 6.3%
- activity at 1000 µM ([10]; Glu 1 mM): 21.1 ± 4.4%
- activity at 100 µM ([11]; Glu 100 μM): 106 ± 18.3%
- activity at 1000 µM ([11]; Glu 1 mM): 91.5 ± 15.4%
- activity at 100 µM ([12]; Glu 100 μM): 4 ± 4.7%
- activity at 1000 µM ([12]; Glu 1 mM): 29.9 ± 8.8%
- activity at 100 µM ([13]; Glu 100 μM): 155 ± 39.5%
- activity at 1000 µM ([13]; Glu 1 mM): 102 ± 24.5%
- activity at 100 µM ([14]; Glu 100 μM): 5.4 ± 4.9%
- activity at 1000 µM ([14]; Glu 1 mM): 7.6 ± 4.3%
- activity at 100 µM ([15]; Glu 100 μM): 17.8 ± 15.3%
- activity at 1000 µM ([15]; Glu 1 mM): 50.8 ± 17.2%
